Assay results as given in US9856279B2 (AGIOS PHARMACEUTICALS, INC, priority 2011, dated 2018).
Like-named read-outs stand apart in the source and are kept apart here.

Columns and labels:
IDH1 R132H = IDH1 R132H (Homo sapiens, UniProt O75874, R132H); assay: Assay for IDH1 R132H inhibitors (NADPH/aKG, resazurin detection); type: biochemical; details: enzyme assay of Example 12; read-out: IDH1R132H IC50
Procedure, shortened: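 Compound added to substrate mix (8 uM NADPH, 2 mM aKG), then enzyme mix (0.2 μg/ml IDH1 R132H); 50 min RT in 20 mM Tris pH 7.5, 150 mM NaCl, 10 mM MgCl2, 0.03% BSA. Resazurin detection mix (30 μM) 5 min RT; resorufin fluorescence Ex544/Em590.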

HT1080 cells = assay: Cellular assay for IDH1m inhibitors: inhibition of 2-HG production (LC-MS, 48 hours) in HT1080 cells; type: cell-based; details: Homo sapiens
Procedure, shortened: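 Cells were seeded at 5000/well in DMEM with 10% FBS, incubated overnight, then treated with compound (0.2% DMSO final) for 48 h at 37° C. Medium 2-HG was quantified by LC-MS. IC50 is the concentration reducing 2-HG by 50% versus DMSO control, and CellTiter-Glo viability was read at 72 h.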

U87MG cells = assay: Cellular assay for IDH1m inhibitors: inhibition of 2-HG production (LC-MS, 48 hours) in U87MG cells; type: cell-based; details: Homo sapiens, U-87 MG
Protocol: Cells (e.g., HT1080 or U87MG) and are grown in T125 flasks in DMEM containing 10% FBS, 1× penicillin/streptomycin and 500 ug/mL G418. They are harvested by trypsin and seeded into 96 well white bottom plates at a density of 5000 cell/well in 100 ul/well in DMEM with 10% FBS. No cells are plates in columns 1 and 12. Cells are incubated overnight at 37° C. in 5% CO2. The next day compounds are made up at 2× concentration and 100 ul are added to each cell well. The final concentration of DMSO is 0.2% and the DMSO control wells are plated in row G. The plates are then placed in the incubator for 48 hours. At 48 hours, 100 μl of media is removed from each well and analyzed by LC-MS for 2-HG concentrations. The cell plate is placed back in the incubator for another 24 hours. At 72 hours post compound addition, 10 mL/plate of Promega Cell Titer Glo reagent is thawed and mixed. The cell plate is removed from the incubator and allowed to equilibrate to room temperature. Then 100 ul of reagent is added to each well of media. The cell plate is then placed on an orbital shaker for 10 minutes and then allowed to sit at room temperature for 20 minutes. The plate is then read for luminescence with an integration time of 500 ms.
The IC50 for inhibition of 2-HG production (concentration of test compound to reduce 2HG production by 50% compared to control) in these two cell lines for various compounds of formula I is set forth in Table 4 above.

[1] = HT-1080, inhibition of 2-HG production, HT1080 cells, read-out: HT1080 IC50
[2] = inhibition of 2-HG production, U87R132H cells, read-out: U87R132H IC50

Sequence of IDH1 R132H (O75874 whole entry R132H): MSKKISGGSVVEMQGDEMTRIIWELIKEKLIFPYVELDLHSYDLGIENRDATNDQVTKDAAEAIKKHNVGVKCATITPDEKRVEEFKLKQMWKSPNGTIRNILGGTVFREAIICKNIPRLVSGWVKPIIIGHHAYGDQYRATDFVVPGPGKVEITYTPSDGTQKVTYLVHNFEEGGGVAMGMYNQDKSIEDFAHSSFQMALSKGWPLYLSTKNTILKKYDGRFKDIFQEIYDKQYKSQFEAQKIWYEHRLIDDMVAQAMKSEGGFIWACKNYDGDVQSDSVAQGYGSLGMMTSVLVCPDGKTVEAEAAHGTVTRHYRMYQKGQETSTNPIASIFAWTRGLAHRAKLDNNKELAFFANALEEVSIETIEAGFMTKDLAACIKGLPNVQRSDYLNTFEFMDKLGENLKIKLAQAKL

IC50 (IDH1 R132H) [nM]	IC50 (HT1080 cells; [1]) [µM]	IC50 (U87MG cells; [2]) [µM]	Compound	IC50 (HT1080 cells; HT-1080, read-out: HT1080 IC50 (μM)) [µM]	IC50 (U87MG cells; read-out: U87R132H IC50 (μM)) [µM]
< 500	1 to 10	0.5 to 1	COCCC(=O)N1CCN(c2nc(C3CC3)c(OCc3cccnc3)cc2C#N)C[C@H]1C [Compound 304, (R)-6-cyclopropyl-2-(4-(3-methoxypropanoyl)-3-methylpiperazin-1-yl)-5-(pyridin-3-ylmethoxy)nicotinonitrile]		
< 500	< 0.5	< 0.5	C=Cc1cc(-c2cc(C#N)c(N3CCN(C(=O)CCO)[C@H](C(C)C)C3)nc2C2CC2)c2ccncc2n1 [Compound 681, (R)-6-cyclopropyl-2-(4-(3-hydroxypropanoyl)-3-isopropylpiperazin-1-yl)-5-(2-vinyl-1,7-naphthyridin-4-yl)nicotinonitrile]		
< 500	0.5 to 1	< 0.5	COCC(=O)N1CCN(c2nc(C3CC3)c(Nc3ccnc(Cl)c3)cc2C#N)C[C@H]1C1CC1 [Compound 718, (R)-5-((2-chloropyridin-4-yl)amino)-6-cyclopropyl-2-(3-cyclopropyl-4-(2-methoxyacetyl)piperazin-1-yl)nicotinonitrile]		
500 to 1000	1 to 10	1 to 10	C=C(C)C(=O)Nc1cccc(-c2cc(C#N)c(N3CCN(C(=O)CCOC)[C@H](C)C3)nc2C2CC2)c1 [Compound 449, (R)—N-(3-(5-cyano-2-cyclopropyl-6-(4-(3-methoxypropanoyl)-3-methylpiperazin-1-yl)pyridin-3-yl)phenyl)methacrylamide]		
< 500	< 0.5	< 0.5	CCOC1CC1C(=O)N1CCN(c2nc(C3CC3)c(-c3cccc4cnccc34)cc2C#N)C[C@H]1C1CC1 (stereo partly drawn) [Compound 481]		
< 500	< 0.5	< 0.5	C=Cc1cc(-c2cc(C#N)c(N3CCN(C(=O)CC(C)(C)O)[C@H](C4CC4)C3)nc2C2CC2)ccn1 [Compound 561, (R)-2-cyclopropyl-6-(3-cyclopropyl-4-(3-hydroxy-3-methylbutanoyl)piperazin-1-yl)-2′-vinyl-3,4′-bipyridine-5-carbonitrile]		
< 500	1 to 10	1 to 10	CCS(=O)(=O)Nc1cccc(-c2cc(C#N)c(N3CCN(C(=O)CCOC)[C@H](C)C3)nc2C2CC2)c1 [Compound 448, (R)—N-(3-(5-cyano-2-cyclopropyl-6-(4-(3-methoxypropanoyl)-3-methylpiperazin-1-yl)pyridin-3-yl)phenyl)ethanesulfonamide]		
< 500	< 0.5	< 0.5	C=Cc1cc(-c2cc(C#N)c(N3CCN(C(=O)CC4CCO4)[C@H](C)C3)nc2C2CC2)ccn1 (stereo partly drawn) [Compound 649, 2-cyclopropyl-6-((3R)-3-methyl-4-(2-(oxetan-2-yl)acetyl)piperazin-1-yl)-2′-vinyl-[3,4′-bipyridine]-5-carbonitrile]		
< 500	< 0.5	< 0.5	C=Cc1ncc2c(-c3cc(C#N)c(N4CCN(C(=O)CCOC)[C@H](C(C)C)C4)nc3C3CC3)cccc2n1 [Compound 634, (R)-6-cyclopropyl-2-(3-isopropyl-4-(3-methoxypropanoyl)piperazin-1-yl)-5-(2-vinylquinazolin-5-yl)nicotinonitrile]		
< 500	1 to 10	1 to 10	COCCC(=O)N1CCN(c2nc(C3CC3)c(O[C@H](C)c3ccccc3)cc2C#N)C[C@H]1C [Compound 307, 6-cyclopropyl-2-((R)-4-(3-methoxypropanoyl)-3-methylpiperazin-1-yl)-5-((R)-1-phenylethoxy)nicotinonitrile]		
< 500	< 0.5	< 0.5	C=Cc1cc(-c2c(C3CC3)nc(N3CCN(C(=O)C[C@H]4CCO4)[C@H](C4CC4)C3)c(C#N)c2C)cnn1 [Compound 785, 6-cyclopropyl-2-((R)-3-cyclopropyl-4-(2-((R)-oxetan-2-yl)acetyl)piperazin-1-yl)-4-methyl-5-(6-vinylpyridazin-4-yl)nicotinonitrile]		
< 500	1 to 10	0.5 to 1	COCCC(=O)N1CCN(c2nc(C3CC3)c(-c3cccc4[nH]ncc34)cc2C#N)C[C@H]1C [Compound 438, (R)-6-cyclopropyl-5-(1H-indazol-4-yl)-2-[4-(3-methoxy-propionyl)-3-methyl-piperazin-1-yl]-nicotinonitrile]		
< 500	0.5 to 1	0.5 to 1	C=Cc1cc2c(-c3cc(C#N)c(N4CCN(C(=O)C5CC5)[C@H](C5CC5)C4)nc3C3CC3)cccc2cn1 [Compound 565, (R)-2-(4-(cyclopropanecarbonyl)-3-cyclopropylpiperazin-1-yl)-6-cyclopropyl-5-(3-vinylisoquinolin-5-yl)nicotinonitrile]		
< 500	1 to 10	1 to 10	C=CS(=O)(=O)N(c1cccc(-c2cc(C#N)c(N3CCN(C(=O)C4CC4)[C@H](C4CC4)C3)nc2C2CC2)c1)S(=O)(=O)C=C [Compound 452, (R)—N-(3-(5-cyano-6-(4-(cyclopropanecarbonyl)-3-cyclopropylpiperazin-1-yl)-2-cyclopropylpyridin-3-yl)phenyl)-N-(vinylsulfonyl)ethenesulfonamide]		
< 500	1 to 10	0.5 to 1	C[C@@H]1CN(c2nc(C3CC3)c(-c3cccc4cnccc34)cc2C#N)CCN1C(=O)CC(F)(F)F [Compound 386, (R)-6-cyclopropyl-5-(isoquinolin-5-yl)-2-(3-methyl-4-(3,3,3-trifluoropropanoyl)piperazin-1-yl)nicotinonitrile]		
< 500	< 0.5	< 0.5	C=CC(=O)N1CCC=C(c2cc(C#N)c(N3CCN(C(=O)COC)[C@H](C4CC4)C3)nc2C2CC2)C1 [Compound 728, (R)-5-(1-acryloyl-1,2,5,6-tetrahydropyridin-3-yl)-6-cyclopropyl-2-(3-cyclopropyl-4-(2-methoxyacetyl)piperazin-1-yl)nicotinonitrile]		
< 500	< 0.5	< 0.5	C=Cc1cc(Nc2cc(C#N)c(N3CCN(C(=O)C[C@@H]4CCO4)[C@H](C4CC4)C3)nc2C2CC2)ccn1 [Compound 774, 6-cyclopropyl-2-((R)-3-cyclopropyl-4-(2-((S)-oxetan-2-yl)acetyl)piperazin-1-yl)-5-((2-vinylpyridin-4-yl)amino)nicotinonitrile]		
< 500	< 0.5	< 0.5	C=Cc1cnnc(-c2cc(C#N)c(N3CCN(C(=O)C[C@H]4CCO4)[C@H](C4CC4)C3)nc2C2CC2)c1 [Compound 766, 6-cyclopropyl-2-((R)-3-cyclopropyl-4-(2-((R)-oxetan-2-yl)acetyl)piperazin-1-yl)-5-(5-vinylpyridazin-3-yl)nicotinonitrile]		
< 500	< 0.5	< 0.5	C=Cc1cc(-c2cc(C#N)c(N3CCN(C(=O)CCOC)[C@H](C)C3)nc2C2CC2)cnn1 [Compound 615, (R)-6-cyclopropyl-2-(4-(3-methoxypropanoyl)-3-methylpiperazin-1-yl)-5-(6-vinylpyridazin-4-yl)nicotinonitrile]		
< 500	< 0.5	< 0.5	C=Cc1cc(-c2cc(C#N)c(N3CCN(C(=O)CC[C@@H]4CCO4)[C@H](C4CC4)C3)nc2C2CC2)ccn1 [Compound 794, 2-cyclopropyl-6-((R)-3-cyclopropyl-4-(3-((R)-oxetan-2-yl)propanoyl)piperazin-1-yl)-2′-vinyl-[3,4′-bipyridine]-5-carbonitrile]		
< 500	0.5 to 1	0.5 to 1	CCC(=O)Nc1cccc(-c2cc(C#N)c(N3CCN(C(=O)CCOC)[C@H](C)C3)nc2C2CC2)c1 [Compound 424, (R)—N-(3-(5-cyano-2-cyclopropyl-6-(4-(3-methoxypropanoyl)-3-methylpiperazin-1-yl)pyridin-3-yl)phenyl)propionamide]		

Compound	IC50 (IDH1 R132H) [nM]	IC50 (HT1080 cells; [1]) [µM]	IC50 (U87MG cells; [2]) [µM]	IC50 (HT1080 cells; HT-1080, read-out: HT1080 IC50 (μM)) [µM]	IC50 (U87MG cells; read-out: U87R132H IC50 (μM)) [µM]
C=Cc1cc(-c2cc(C#N)c(N3CCN(C(=O)CCOP(=O)(O)O)[C@H](C4CC4)C3)nc2C2CC2)ccn1 [Compound 810, Sodium (R)-3-(4-(5-cyano-2-cyclopropyl-2′-vinyl-[3,4′-bipyridin]-6-yl)-2-cyclopropylpiperazin-1-yl)-3-oxopropyl phosphate]	500 to 1000			< 0.5	< 0.5
